The text below walks through data of patent US9193978B2, “Production of alkenes by combined enzymatic conversion of 3-hydroxyalkanoic acids” (Scientist of Fortune, S.A., priority 2010, dated 2015).

Where only a bound is given, the exact number is not on record here.

The target of series [1] is T1, Thermoplasma acidophilum MDP decarboxylase, SEQ ID NO: 2 (Thermoplasma acidophilum, UniProt Q9HIN1).
T1 construct: Th; His6 (inserted after the initiator methionine) (N); made in house; host or cells: Escherichia coli BL21(DE3)
T1 sequence (Q9HIN1 1-318): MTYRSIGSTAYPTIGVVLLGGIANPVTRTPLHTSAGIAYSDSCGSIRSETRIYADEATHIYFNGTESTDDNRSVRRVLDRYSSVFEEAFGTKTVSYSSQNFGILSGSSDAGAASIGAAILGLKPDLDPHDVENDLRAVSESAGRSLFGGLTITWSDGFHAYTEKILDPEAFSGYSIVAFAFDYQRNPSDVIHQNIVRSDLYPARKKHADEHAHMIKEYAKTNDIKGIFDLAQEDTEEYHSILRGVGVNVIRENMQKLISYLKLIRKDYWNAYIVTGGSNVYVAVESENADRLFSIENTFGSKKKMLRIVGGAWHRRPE
Briefly: Phosphotransferase activity (ADP release from 3-hydroxyisovalerate and ATP), pyruvate kinase/lactate dehydrogenase coupled assay. The format is biochemical. To be noted: 40° C., pH 7.0, 5 mM ATP, 0-50 mM HIV. The procedure:
(§1) The release of ADP that is associated with IBN production from HIV was quantified using the pyruvate kinase/lactate dehydrogenase coupled assay (FIG. 10). The MDP decarboxylases from P. torridus (SEQ ID NO:1), Th. Acidophilum (SEQ ID NO:2), S. infantarius (SEQ ID NO:7), S. mitis (SEQ ID NO:10) were evaluated for their ability to phosphorylate HIV, releasing ADP.
(§2) The studied enzymatic reaction was carried out under the following conditions at 40° C.:
(§3) 0.5 mM Phosphoenolpyruvate
(§4) 3 U/ml Lactate dehydrogenase
(§5) 0-50 mM 3-Hydroxyisovalerate (HIV)
(§6) The pH was adjusted to 7.0.
(§7) Each assay was started by addition of particular enzyme (at a concentration from 0.05 to 1 mg/ml) and the disappearance of NADH was monitored by following the absorbance at 340 nm.
(§8) Assays with MDP decarboxylases from the P. torridus phylum as well from the Streptococcus genus gave rise to a reproducible increase in ADP production in the presence of HIV.

Series [2] concerns the target T2, Picrophilus torridus MDP decarboxylase, SEQ ID NO: 1 (Picrophilus torridus, UniProt Q6KZB1).
T2 construct: His6 (inserted after the initiator methionine) (N); made in house; host or cells: Escherichia coli BL21(DE3)
T2 sequence (Q6KZB1 1-324): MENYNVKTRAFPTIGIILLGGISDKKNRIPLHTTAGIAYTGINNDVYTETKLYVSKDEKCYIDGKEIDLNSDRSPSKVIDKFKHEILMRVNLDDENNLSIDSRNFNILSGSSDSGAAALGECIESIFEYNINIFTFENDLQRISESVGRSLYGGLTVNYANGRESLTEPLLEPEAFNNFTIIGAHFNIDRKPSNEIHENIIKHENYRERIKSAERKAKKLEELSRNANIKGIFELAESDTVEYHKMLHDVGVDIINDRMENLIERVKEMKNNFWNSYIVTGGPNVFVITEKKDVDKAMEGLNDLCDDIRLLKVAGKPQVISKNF
The description is as above. The format is biochemical. To be noted: 40° C., pH 7.0, 5 mM ATP, 0-50 mM HIV.
Text: FIG. 12: Isobutene production from 3-hydroxyisovalerate in the following assays: • Without enzyme • In the presence of S. mitis MDP decarboxylase (SEQ ID NO:10) • In the presence of Th. acidophilum MDP decarboxylase (SEQ ID NO:2) • In the presence of both Th. acidophilum (SEQ ID NO:2) and S. mitis (SEQ ID NO:10) enzymes.
as §1, §2, §3, §4, §5, §6, §7, §8

In series [3] the target is T3, Streptococcus mitis MDP decarboxylase, SEQ ID NO: 10 (Streptococcus mitis, UniProt A0ACG7RFV4). Briefly: Kinetic parameters of isobutene production from 3-phosphonoxyisovalerate (GC). The format is biochemical. The note with it: pH 7.5, 37° C., 44 h, 40 mM ATP, 0-100 mM 3-phosphonoxyisovalerate. The procedure:
The kinetic parameters of isobutene production were measured under the following conditions:
0-100 mM 3-phosphonoxyisovalerate
(§9) The pH was adjusted to 7.5
The reaction was initiated by addition of 1 mg of purified MDP decarboxylase from S. mitis (SEQ ID NO:10) to 0.5 ml of reaction mixture. The mixture was then incubated without shaking at 37° C. for 44 h in a sealed vial of 2 ml (Interchim).
(§10) One ml of the gaseous phase was collected and injected into a Varian 430-GC gas chromatograph equipped with an FID detector and a CP SilicaPlot column (Varian). Commercial isobutene was used as reference.

Series [4] has as its target T3, Streptococcus mitis MDP decarboxylase, SEQ ID NO: 10. Briefly: Effect of ATP on isobutene production from 3-phosphonoxyisovalerate (GC). Type of series: biochemical. To be noted: 10 mM ATP vs 0 mM ATP, 25 mM PIV, pH 7.5, 37° C., 26 h. As to the method:
The assays of isobutene production were carried out under the following conditions:
0 mM ATP (assay No1 and No2)
10 mM ATP (assay No3 and No4)
25 mM 3-phosphonoxyisovalerate
as §9
The reaction was initiated by addition of 2 mg of purified MDP decarboxylase from S. mitis (SEQ ID NO:10) to 0.5 ml of reaction mixture. Control reactions were run in the absence of enzyme (assays No1 and No3).
The mixture was incubated without shaking at 37° C. for 26 h in a sealed vial of 2 ml (Interchim).
as §10

Substrate in series [5]: CC(C)(O)CC(=O)O
Put plainly: Phosphotransferase activity (ADP release from 3-hydroxyisovalerate and ATP), pyruvate kinase/lactate dehydrogenase coupled assay. Type of series: biochemical, Streptococcus infantarius. To be noted: other: 40° C., pH 7.0, 5 mM ATP, 0-50 mM HIV. The procedure: as §1, §2, §3, §4, §5, §6, §7, §8

Turning to `CC(C)(O)CC(=O)O` [3-hydroxyisovalerate], the Km (as a rule, the concentration of substrate that gives half-maximal velocity) came out at 4.02 mM in series [1] and 9.17 mM in series [2].
Take `CC(C)(CC(=O)O)OP(=O)(O)O` [3-phosphonoxyisovalerate]: in series [3], the Km was greater than 60 mM and the kcat (as a rule, the maximal rate divided by the concentration of active sites) was “at least 1.3×10^−3 sec^−1”.
For `Nc1ncnc2c1ncn2[C@@H]1O[C@H](COP(=O)(O)OP(=O)(O)OP(=O)(O)O)[C@@H](O)[C@H]1O` [ATP], the “increase of isobutene production from 3-phosphonoxyisovalerate (PIV) on addition of ATP” value in series [4] is listed as 120 fold.

B1: Streptococcus infantarius MDP decarboxylase, SEQ ID NO: 7 (Streptococcus infantarius subsp. infantarius ATCC BAA-102) (protein)
chain: MDRKIVTVKSYANIAIIKYWGKADAAKMIPATSSISLTLENMFTTTSVSFLPDSASHDEFYINGVLQDDKEHAKISAIIDQYRGQRSEYVKVETSNNMPTAAGLSSSSSGLSALVKACNELFETGLTRAELAQKAKFASGSSSRSFFGPLAAWDKDSGEVYPVQTDLKLAMIMLVLSDSKKSISSREGMKRCVETSTTFADWVKQSEQDYKDMLGYLKNNDFERVGELTERNALAMHDTNTHANPPFNYLTEESYKAMEFVKQLRSEGEKCYFTMDAGPNVKVLCLEEDLERLTKRFEENYRVIVSRTKEL
In the case of B1, in series [5], the Michaelis-Menten constant (Km) was 13.4 mM; the kcat was 0.03 s⁻¹; the kcat/Km – broadly, the second-order rate constant that governs catalysis at low substrate concentration – was found to be 2 M⁻¹ s⁻¹.
